Assay results as given in US7704943B2, “Transglutaminase for inhibiting angiogenesis” (Aston University, priority 2000, dated 2010).

What was measured:
ECV304 cells = assay: in vitro angiogenesis/tubulogenesis model, ECV304 cells co-cultured with C378 fibroblasts; format: cell-based, human
Excerpt: An in vitro system of angiogenesis/tubulogenesis was developed to evaluate the efficacy of TGase administration on angiogenesis. […] In the model cell system described below, ECV304 cells were co-cultured with the primary human dermal fibroblast cell line C378 (isolated from human foreskin), which provides the appropriate biochemical information to stimulate the differentiation of ECV304 to form capillary-like structures.
ECV304 cell lines S3 (a neomycin resistant transfected control cell line phenotypically similar to wild type cells) and B4 (a tTGase antisense transfected cell line [Jones, R. A., et al., 1997, J. Cell Sci. 110, 2461-2472]) and C378 were routinely cultured in Dulbecco's Modified Eagles Media (DMEM) supplemented with 2 mM glutamine and 10% (v/v) foetal calf serum (FCS). Cells were harvested by exposure to 0.25% (w/v) bovine trypsin in phosphate buffered saline (PBS) pH 7.4, and collected cells were washed in normal culture media, counted and seeded into the appropriate tissue culture vessel. Standard angiogenesis experiments were performed in 12-well cell culture plates, and 2×10^4 ECV304 cells and 2×10^4 C378 cells were seeded into 1 ml of normal growth media. For immunochemical staining experiment, 2×10^3 cells of each cell type were seeded into […] of growth medium in 8-well glass chamber slides. Co-cultures were incubated at 37° C. in a humidified atmosphere containing 5% (V/V) CO2, and tubules were allowed to develop spontaneously over a 14-day period, with regular changes of growth media every 72 hours.
For cultures treated with purified tTGase, a dose response with 1, 10 and 50 μg […] liver transglutaminase (gplTGase) was performed with two separate dosing regimes. gplTGase was activated by pre-incubation with 10 mM DTT on ice for one hour prior to its addition to cultures. The highest amount of DTT present in the cultures was 0.5 mm for the 50 μg gplTGase treatment, and control cultures were treated with DTT accordingly. In some experiments, cultures were treated with two administrations of exogenous enzyme on day 1 and day 4 of the experiment. Further studies extended the dose regime to include five gplTGase treatments, on days 1, 4, 7, 10 and 13.
Non-specific protein binding was blocked by incubating fixed cells with 300 μl of 3% (w/v) bovine serum albumin (BSA) overnight at 4° C. Blocked plates were then incubated with the primary antisera (see table 5), diluted in the above buffer, for 2 hours at 37° C. with gentle shaking. Next, plates were washed three times and incubated with the appropriate species-specific secondary antibody (see table 5) conjugated to Horseradish peroxidase (HRP) for 2 hours at 37° C. with gentle shaking. […]

rat dermal wound = settings: addition of exogenous enzyme, rat dermal wound healing; cited from earlier work

Molecule: Cc1ccc(C(=O)Nc2ccc(S(=O)(=O)O)c3cc(S(=O)(=O)O)cc(S(=O)(=O)O)c23)cc1NC(=O)c1cccc(NC(=O)Nc2cccc(C(=O)Nc3cc(C(=O)Nc4ccc(S(=O)(=O)O)c5cc(S(=O)(=O)O)cc(S(=O)(=O)O)c45)ccc3C)c2)c1 [suramin]
- microtubule formation (collagen type I, UEA-1 and tTGase staining) (ECV304 cells; 10 μM, compared to untreated cells): significantly reduced
- microtubule formation (ECV304 cells; 100 μM): completely eradicated
- microtubule formation (ECV304 cells; 200 μM): completely eradicated
- angiogenesis (FIG. 4, tubules stained for collagen type I, UEA-1, tTGase) (ECV304 cells; standard angiogenesis inhibitor, positive control): inhibition of angiogenesis

B1: recombinant tTGase: exogenous recombinant tissue transglutaminase used in the study of Haroon et al 1999 (protein, UniProt P21980 2-687, looked up)
Protein-glutamine …: AEELVLERCDLELETNGRDHHTADLCREKLVVRRGQPFWLTLHFEGRNYEASVDSLTFSVVTGPAPSQEAGTKARFPLRDAVEEGDWTATVVDQQDCTLSLQLTTPANAPIGLYRLSLEASTGYQGSSFVLGHFILLFNAWCPADAVYLDSEEERQEYVLTQQGFIYQGSAKFIKNIPWNFGQFEDGILDICLILLDVNPKFLKNAGRDCSRRSSPVYVGRVVSGMVNCNDDQGVLLGRWDNNYGDGVSPMSWIGSVDILRRWKNHGCQRVKYGQCWVFAAVACTVLRCLGIPTRVVTNYNSAHDQNSNLLIEYFRNEFGEIQGDKSEMIWNFHCWVESWMTRPDLQPGYEGWQALDPTPQEKSEGTYCCGPVPVRAIKEGDLSTKYDAPFVFAEVNADVVDWIQQDDGSVHKSINRSLIVGLKISTKSVGRDEREDITHTYKYPEGSSEEREAFTRANHLNKLAEKEETGMAMRIRVGQSMNMGSDFDVFAHITNNTAEEYVCRLLLCARTVSYNGILGPECGTKYLLNLNLEPFSEKSVPLCILYEKYRDCLTESNLIKVRALLVEPVINSYLLAERDLYLENPEIKIRILGEPKQKRKLVAEVSLQNPLPVALEGCTFTVEGAGLTEEQKTVEIPDPVEAGEEVKVRMDLLPLHMGLHKLVVNFESDKLKAVKGFRNVIIGPA
- vessel length density (rat dermal wound): increase in vessel length density
